Assay results reported in US8623916B2, “Polyunsaturated fatty acid and diol ester as an anti-acne agent” (Pierre Fabre Dermo-Cosmetique, priority 2008, dated 2014).

Columns and labels:
[1] = system: interleukin 8 release by human HaCaT keratinocytes; conditions: 24 h with PUFA, then PMA/A23187 for 6 h (FIG. 3)
Method: The anti-inflammatory potential of the PUFAs was tested on human keratinocytes (HaCaT) stimulated by PMA/A23187. The changes induced by these PUFAs are evaluated on the production of eicosanoids and an inflammatory cytokine, interleukin 8, during an inflammatory process triggered by PMA/A23187. HaCaT cells are incubated on 96-well plates for 24 h in the presence of PUFAs, rinsed and then stimulated by PMA/A23187. The supernatants are recovered after 6 h of stimulation and IL-8 is quantified using the OptEIA™ ELISA kit (BD Pharmingen).

[2] = system: P. acnes strain; experiment: Antibacterial activity of the diols, MIC micromethod in liquid medium, P. acnes strain; assay type: cell-based, Propionibacterium acnes
Method: Tests were carried out with eight microbial strains using the dilution method described below.
Minimum inhibitory concentrations (MICs) are determined using a micromethod in liquid medium. Successive 1/2 dilutions of the test products in culture medium (Trypcase Soy Broth) are carried out in 96-well microplates in a final volume of 0.1 ml. The wells are inoculated with 0.01 ml of the bacterial suspensions titrated at roughly 1×10^7 CFU/ml. The microplates are incubated in optimal growth conditions and the MIC is read visually.
The columns labeled “BS” represent the bacteriostatic activity and the columns labeled “BC” represent the bactericidal activity of the diols (1% corresponds to a concentration of 10 mg/ml).

[3] = system: release of arachidonic acid and eicosanoids by HaCaT keratinocytes; experiment: Arachidonic acid metabolism in [3H]AA-labeled HaCaT keratinocytes stimulated by PMA/A23187; assay type: cell-based, human; conditions: HaCaT pretreated with PUFA 24 h, 500 nM PMA and 1 μM A23187 for 5 hours (FIGS. 4A-4C)
Method: HaCaT keratinocytes were incubated in 24-well plates in the presence of 1 μCi [^3H]AA for 18 hours under an atmosphere of 5% CO2. To test the capacity of
PUFAs to modulate the inflammatory response of keratinocytes, [^3H]-labeled HaCaT cells are pretreated with PUFAs for 24 hours, rinsed and then stimulated by 500 nM PMA and 1 μM A23187 for 5 hours. [^3H]AA and metabolites released by the HaCaT cells in the culture medium are extracted by column chromatography. The eluate is evaporated under N2. The dry residue is taken up in methanol and deposited on thin-layer silica plates activated beforehand for 1 hour at 100° C. The developing solvent is the organic phase of the mixture ethyl acetate/water/isooctane/acetic acid (110:100:50:20, v/v). [^3H]AA and metabolites (6-keto-prostaglandin F1α, 6k-PGF1α; prostaglandin (PG) FαE2D2; thromboxane (TX) B2, leukotrienes (LT) B4, C4, D4) are identified by a Berthold TLC scanner.

[4] = system: Staphylococcus aureus ATCC6538; experiment: Kinetics of antibacterial activity (residual CFU count), Staphylococcus aureus; assay type: cell-based; conditions: S. aureus
Text: (§1) The kinetics of the antibacterial activity of 1,2-octanediol were studied by evaluating the lethality of the bacteria over time by counting residual colony-forming units (CFUs) after contact of the test solution with the bacterial suspension.
(§2) The bacterial strains used are: Staphylococcus aureus ATCC6538 and Propionibacterium acnes ATCC6919. The culture medium used for Staphylococcus aureus ATCC6538 is Trypcase Soy Agar whereas the culture medium used for Propionibacterium acnes ATCC6919 is Schaedler agar. Stock solutions containing 1% and 0.5% 1,2-octanediol are prepared extemporaneously in 1% Polysorbate 20 (qsp WFI) and then adjusted to pH 7 with 0.1 N NaOH solution.
(§3) A volume of 5 ml of each stock solution is inoculated with 50 μl bacterial suspension titrated at roughly 1×10^8 CFU/ml.
(§4) After each time of contact (contact times tested: 5 min, 15 min, 30 min and 60 min), residual bacteria are counted by taking a 1 ml aliquot neutralized by 9 ml Trypcase Soy Broth and 10% Polysorbate 80.
(§5) Counting is carried out by adding 1 ml neutralized mixture and four 1/10 serial dilutions to the corresponding agar plates.
(§6) The agar plates are incubated at 36° C.±1° C. in aerobic atmosphere for S. aureus and anaerobic atmosphere for P. acnes (Generbag anaer, Biomerieux) for 72 hours and then the CFUs are counted.
(§7) • with R meaning “reduction”. It refers to the ratio between the number of inoculated bacteria and the number of residual bacteria after contact of the test solution with the bacterial suspension.

[5] = system: Propionibacterium acnes ATCC6919; experiment: Kinetics of antibacterial activity (residual CFU count), Propionibacterium acnes; assay type: cell-based; conditions: for Log R: P. acnes
Text: as §1, §2, §3, §4, §5, §6, §7

## CCCCC/C=C\C/C=C\C/C=C\CCCCC(=O)O [γ-linolenic acid]
[1]
  effect on IL-8 secretion of stimulated keratinocytes: inhibitory effect

## CCCCCCC(O)CCO (stereo not drawn) [1,3-nonanediol]
[2]
  bactericidal effect concentration (BC): 3.12 mg/mL
  bacteriostatic effect concentration (BS): 1.56 mg/mL

## CC/C=C\C/C=C\C/C=C\C/C=C\CCCCC(=O)O [stearidonic acid]
[3]
  release of arachidonic acid: significantly inhibits
  release of cyclooxygenated metabolites: significantly inhibits
  release of lipoxygenated metabolites: significantly inhibits

## CC/C=C\C/C=C\C/C=C\CCCCCCCC(=O)O [α-linolenic acid]
[1]
  effect on IL-8 secretion of stimulated keratinocytes: inhibitory effect
[3]
  release of arachidonic acid: significantly inhibits
  release of cyclooxygenated metabolites: significantly inhibits
  release of lipoxygenated metabolites: significantly inhibits

## CCCCCCC(O)CO (stereo not drawn) [1,2-octanediol]
[4]; 0.5%, pH 7, contact 5 min
  Log R: 0.4
[4]; 0.5%, pH 7, contact 15 min
  Log R: 0.1
[4]; 0.5%, pH 7, contact 30 min
  Log R: 0.2
[4]; 0.5%, pH 7, contact 60 min
  Log R: 0.5
[4]; 1%, pH 7, contact 5 min
  Log R: >5.3
[4]; 1%, pH 7, contact 15 min
  Log R: >5.3
[4]; 1%, pH 7, contact 30 min
  Log R: >5.3
[4]; 1%, pH 7, contact 60 min
  Log R: >5.3
[5]; 0.5%, physiological pH, one hour of contact
  decrease of the population of P. acnes: greater than 99.9%
[5]; 0.5%, pH 7, contact 5 min
  Log R: 0.2
[5]; 0.5%, pH 7, contact 15 min
  Log R: 0.7
[5]; 0.5%, pH 7, contact 30 min
  Log R: 1.8
[5]; 0.5%, pH 7, contact 60 min
  Log R: 3
[5]; 1%, pH 7, contact 5 min
  Log R: >5
[5]; 1%, pH 7, contact 15 min
  Log R: >5
[5]; 1%, pH 7, contact 30 min
  Log R: >5
[5]; 1%, pH 7, contact 60 min
  Log R: >5

## CCCCC/C=C\C/C=C\CCCCCCCC(=O)O [linoleic acid]
[3]
  release of arachidonic acid: significantly inhibits
  release of cyclooxygenated metabolites: significantly inhibits
  release of lipoxygenated metabolites: significantly inhibits
